According to PMC5893132, “Selective inhibition of histamine-evoked Ca^2+ signals by compartmentalized cAMP in human bronchial airway smooth muscle cells” (Cell Calcium, 2018):
Structures can show the parent of a compound that is named as a salt.

Columns and labels:
[1] = system: histamine-evoked Ca^2+ signals in hBASMCs; assay: Histamine-evoked Ca2+ signals in populations of fluo-4-loaded hBASMCs; format: cell-based, human; settings: HBSS
Method: Two methods were used to measure [Ca^2+]i in populations of hBASMCs. For measurements using a FlexStation III plate-reader (Molecular Devices, Sunnyvale, CA, USA), hBASMCs were seeded into 96-well plates (10^4 cells per well). After about 4 days, when the cells were confluent, the medium was replaced with SMGM-2 without serum or growth factor supplements, and the cells were used after a further 24 h. This period in serum-free medium increased by about 2-fold the amplitude of the increases in [Ca^2+]i evoked by histamine (results not shown). Cells were washed with HEPES-buffered saline (HBS: 135 mM NaCl, 5.9 mM KCl, 1.2 mM MgCl2, 1.5 mM CaCl2, 11.6 mM HEPES, 11.5 mM D-glucose, pH 7.3), and loaded with fluo-4 by incubation with fluo-4-AM (2 μM) in HBS (100 μL per well) containing pluronic F127 (0.02%, v/v) and probenecid (2.5 mM). After 1 h at 20 °C, the medium was replaced with HBS (100 μL per well) containing probenecid (2.5 mM). After a further incubation at 20 °C for 1 h, the medium was replaced with HBS (60–80 μL per well) or nominally Ca^2+-free HBS, and the cells were used immediately for experiments at 20 °C. In some experiments, BAPTA (2.5 mM) was added to HBS during the recording; this reduced the free [Ca^2+] of the HBS to ∼120 nM without affecting the pH. Drug additions (20 μL at 4 or 5 times the final concentration) were added automatically. Fluorescence from fluo-4 (excitation 485 nm, emission 525 nm) was recorded at 1.44-s intervals using Softmax Pro 5.4 (Molecular Devices). Fluorescence was calibrated to [Ca^2+]i from: [Ca^2+]i=KDCa×(F−Fmin/Fmax−F) where, KDCa is the equilibrium dissociation constant of fluo-4 for Ca^2+ (345 nM), F is the recorded fluorescence, and Fmin and Fmax are the fluorescence values recorded after addition of triton-X-100 (0.1%, v/v) with either BAPTA (10 mM, Fmin) or CaCl2 (10 mM, Fmax). Although treatment with triton-X-100 releases fluo-4 from cells into the medium, the fluo-4 fluorescence is captured with the same efficiency whether it is trapped within cells or dispersed within the small volume of the wells (unpublished observations). Fmax was determined for each well at the end of an experiment, and the average value was used for each column of 8 wells. Fmin was determined from parallel wells on each plate.
For measurements of [Ca^2+]i using an FDSS 7000 FLIPR (Hamamatsu), hBASMCs were seeded into 384-well plates (8000 cells per well) in 20 μL of SMGM-2 containing 5% serum. After 24 h, the medium was replaced with 15 μL of serum-free SMGM-2, and after a further 6 h the cells were loaded with Ca^2+ indicator by addition of FLIPR calcium 4 assay kit (Molecular Devices) supplemented with probenecid (2.5 mM). The exact composition of this ‘no-wash’ indicator kit is not disclosed by the manufacturer, but it contains fluo-4-AM and components that reduce background fluorescence. The manufacture’s stock solution was diluted 10-fold into HBSS containing BSA (0.1%, w/v) and HEPES (20 mM); 5 μL of this solution was then added to each well (containing 15 μL of serum-free SMGM-2). After 2 h at 37 °C in humidified air containing 5% CO2, the plate was used for experiments at 20 °C. Most additions (5 μL) were prepared in HBSS supplemented with HEPES (20 mM) and BSA (0.1%, w/v). For more prolonged incubations, drugs were diluted in the initial loading medium (to avoid changes in dye-loading during the ‘no wash’ protocol). Fluorescence signals (excitation at 480 nm, emission at 540 nm) were calibrated to [Ca^2+]i after measurement of Fmin and Fmax uniquely for each well, using a KDCa = 345 nM.
All concentration-effect relationships were determined by addition of different drug concentrations to individual wells in the same multi-well plate, rather than by sequential additions to the same well. […]

[2] = system: intracellular cAMP in hBASMCs; assay: Intracellular cAMP in hBASMCs by [3H]-adenine labeling; format: cell-based, human; settings: isoproterenol 10 μM, sustained incubation; [3H]-adenine labeling
Method: hBASMCs in 24-well plates (50,000 cells per well) were grown to confluence. The medium was then replaced with serum-free SMGM-2, and after 24 h this was supplemented with [^3H]-adenine (1 μCi per well, 18.4 Ci·mmol^−1). After 2 h at 37 °C in humidified air with 5% CO2, the medium was removed, and the cells were washed twice with HBS. The cells were stimulated at 20 °C in HBS. Incubations were terminated by removal of the medium, addition of ice-cold trichloroacetic acid (5%, 1 mL) and rapid freezing. This protocol ensured that only intracellular [^3H]-cAMP was detected. [^3H]-adenine nucleotides were separated by column chromatography, and the activity was determined by liquid scintillation counting using Ultra-gold scintillant. Results are presented as [^3H]-cAMP activity as a percentage of the sum of the activities of the fractions containing [^3H]-cAMP, [^3H]-ATP, [^3H]-ADP and [^3H]-AMP; henceforth, reported as [^3H]-cAMP (%).

CC(C)NC[C@H](O)c1ccc(O)c(O)c1 [isoproterenol, (−)-isoproterenol hydrochloride]
IC50 ([1]; Homo sapiens, added 5 min before histamine 10 μM, n = 4, read-out: pIC50 for inhibition of histamine-evoked Ca2+ signals (converted)): 8.13 nM
maximal amplitude of the peak increase in [Ca2+]i evoked by histamine after pre-treatment ([1]; after isoproterenol 10 μM, 5 min, n = 7, control 242 ± 15 nM): 168 ± 19 nM
stimulated cAMP concentration after 30 min relative to after 1 min [2]: 2.8 fold
